pIC50: −log10 of the molar value. Activity calls are given as the source filed them. Cut-off read from the data, not from the text of the source: active = IC50 below about 20 µM; inactive = the rest. Some results are limits rather than exact numbers.

This experiment has as its system Gli-responsive luciferase reporter cells, SUFU pathway antagonism. The experiment is described as follows: blockers of Gli reporter signaling – cell-based, luciferase luminescence, uHTS hits, dose response (AID 602464).

In general, pIC50 refers to the negative decadic logarithm of the IC50, by convention in mol/L. As for `O=C(Cc1ccc(Cl)cc1Cl)Nc1ccncc1`, the pIC50 was 4.99.
As to `CC(=O)Nc1cccc(OCC(=O)/C=C2\N(C)c3ccccc3C2(C)C)c1`, the pIC50 is 5.33.
With `CCCCOCCCNc1ncnc2c1[nH]c1ccccc12`, the pIC50 was 5.50.
With `C=C(C)CSc1nc2sc3c(c2c(=O)n1C1CCCCC1)CCN(C)C3`, the pIC50 is 5.06.
Turning to `CCCN1CCC(=O)N([C@H](CSc2ccc(OC)cc2)Cc2ccccc2)CC1`, the pIC50 is 5.01.
For orientation: IC50 means the concentration that gives 50% inhibition. With `COc1ccccc1CCNC(=O)c1cc(-c2ccncc2)nc2ccc(Br)cc12`, the IC50 was > 20 µM (inactive).
`O=C(c1cc2sccc2n1Cc1ccc(F)cc1)N1CCN(c2nc3ccccc3s2)CC1`: the pIC50 is 5.36.
In the case of `c1ccc(-c2c[n+]3c(n2-c2ccccc2)CCC3)cc1`, the IC50 is > 20 µM (inactive).
Consider `Clc1ccc(-c2cn(-c3ccc(Cl)cc3)c3[n+]2CCCCC3)cc1`, for which the pIC50 is 5.19.
As to `O=C(COC(=O)c1ccc2[nH]c3c(c2c1)CCCC3)Nc1ccccc1Cl`, the IC50 is > 20 µM (inactive).
As for `CC(=O)c1c(C)[nH]c(C(=O)OCC(=O)Nc2sc3c(c2C#N)CCCC3)c1C`, the pIC50 is 5.25.
As for `CCN(CC(=O)Nc1c(F)cccc1F)C(=O)c1cc(S(=O)(=O)N(CC)CC)ccc1N1CCCCC1`, the pIC50 is 4.91.
Regarding `Cc1c(C(C)C)c(=O)n(-c2ccc(S(=O)(=O)NC3CCCCC3)cc2)n1C`, the pIC50 is 5.38.
`O=C(c1ccc(C(F)(F)F)cc1)C1CCCN(Cc2ccncc2)C1` (stereo not given): the pIC50 was 5.28.
For `Cc1cccc(C)c1NC(=S)N(CCN1CCCCCC1)Cc1ccco1`, the IC50 was > 20 µM (inactive).
Consider `C=CCNC(=S)/N=c1/ccccn1Cc1ccccc1`, for which the pIC50 is 4.92.
`Cc1ccc(S(=O)(=O)NCCC2=CCCCC2)cc1C(N)=O`: the pIC50 is 5.06.
Take `Cc1ccc(OCCN2CCN(c3ncnc4sc(C)c(C)c34)CC2)cc1`: the pIC50 was 5.54.
As to `CCN(CC)S(=O)(=O)c1ccc(S(=O)(=O)Nc2c(C)nn(C)c2C)cc1`, the negative logarithm of the IC50 (pIC50) was 5.21.
With `COc1ccc(CNCC(O)COc2cccc3c2OC(C)(C)C3)cc1` (stereo not given), the pIC50 is 5.22.
`O=C(Nc1cccc(C(F)(F)F)c1)C1CCN(S(=O)(=O)c2ccc(N3CCCC3=O)cc2)CC1`: the pIC50 is 5.26.
Same read-out and setting: then `CC[N+](CC)(CC#Cc1ccccc1)CC#Cc1ccccc1`, with 5.36; and `CN(Cc1ccc(OCC(O)CN2CCCCC2)cc1)Cc1ccnc2ccccc12` (stereo not given), with 5.07.
Regarding `Clc1ccc(-c2cn(-c3ccccc3)c3[n+]2CCS3)cc1`, the pIC50 is 4.77.
Regarding `COc1ccc(-n2cc(-c3ccc(OC(F)F)cc3)[n+]3c2CCCCC3)cc1`, the pIC50 is 5.64.
On to `CC(C)Cn1c(N)c(C(=O)COC(=O)C2Cc3ccccc3CN2S(C)(=O)=O)c(=O)n(C)c1=O` (stereo not given), for which the IC50 is > 20 µM (inactive).
Regarding `Cc1nc2cc(N3CCN(C)CC3)c(NC(=O)Cc3ccccc3)cc2c(=O)n1Cc1ccccc1`, the pIC50 is 4.91.
As to `O=C(Nc1nc(-c2cccs2)cs1)c1cccc(S(=O)(=O)N2CCCCCC2)c1`, the pIC50 was 5.64.
Regarding `CC(NC(=O)c1cc2c(=O)n3ccccc3nc2n(CC2CCCO2)c1=N)c1ccccc1` (stereo not given), the IC50 was > 20 µM (inactive).
As for `c1ccc(-c2cn(-c3ccccc3)c3[n+]2CCS3)cc1`, the pIC50 was 5.18.
`CCCCn1c(SCc2c(C)noc2C)nc2cc(S(N)(=O)=O)ccc21`: the pIC50 is 5.38.
Turning to `FC(F)Oc1ccc(-c2c[n+]3c(n2-c2ccccc2)CCCCC3)cc1`, the pIC50 was 5.13.
On to `Fc1ccc(-n2nnnc2-c2cnc(-c3cccs3)nc2C(F)(F)F)cc1`, for which the pIC50 was 5.19.
Regarding `O=S(=O)(NCc1ccncc1)c1ccc(S(=O)(=O)NCC2CCCO2)cc1` (stereo not given), the negative-log IC50 (pIC50) was 4.94.
Consider `CC1=CC(C)C2(COC(c3ccc[n+](C)c3)OC2)C(C)C1` (stereo not given), for which the pIC50 was 4.75.
Same read-out and setting: then `COc1nnc(-c2ccc(N3CCCCC3)c(N)c2)c2ccccc12`, with 5.04.
In the case of `CCCCn1c(CN(C)Cc2ccccc2)nc2c1c(=O)n(C)c(=O)n2C`, the pIC50 was 5.16.
On the same count and under the same terms, the same measure for `CN(Cc1ccc(OC(F)F)cc1)C(=O)c1cccc(S(=O)(=O)N2CCN(Cc3ccccc3)CC2)c1`: 5.16; for `CCC(C(=O)NCCC(C)C)n1ccc2cc(S(=O)(=O)N3CCCCC3)ccc21` (stereo not given): 5.05; for `Cc1nc2ncccn2c1-c1csc(Nc2ccc(O)cc2)n1`: 5.36.
On the same count and under the same terms, the same measure for `O=C(Nc1cc2c3c(c1)C1CCCC1CN3CC1CCCC21)c1ccc([N+](=O)[O-])cc1` (stereo not given): 5.29.
As for `O=C(N[C@H]1C/C=C\C[C@@H](CC(=O)N(CCO)Cc2ccccc2)C(=O)N[C@H](Cc2c[nH]c3ccccc23)COC1=O)OCC1c2ccccc2-c2ccccc21`, the pIC50 is 4.98.
Regarding `COc1cc(NS(=O)(=O)c2ccc(C)cc2C)cc(OC)c1OC`, the pIC50 is 5.17.
Still for that read-out and setting: the same measure for `CCOP(=O)(CCP(=O)(OCC)OCC)OCC.C[CH2][Sn]([Cl])([Cl])[CH2]C`: 5.20.
Turning to `C=CCn1c(O)c(N=NC(=S)Nc2cccc(C)c2)c2ccccc21`, the pIC50 was 5.07.
Same read-out and setting: then `O=C(c1cnc(N2CCN(c3ccccn3)CC2)c2ccccc12)N1CCN(c2cccc(Cl)c2)CC1`, with 4.94.
Take `CCOc1ccc(-c2nc(CSCC(=O)NCC3CCCO3)c(C)o2)cc1` (stereo not given): the pIC50 is 5.83.
Turning to `CC(=O)c1c(C)[nH]c(C(=O)OCC(=O)Nc2ccc(C)cc2[N+](=O)[O-])c1C`, the negative logarithm of the IC50 (pIC50) is 6.27.
As for `Cc1ccc(NC(=O)/C=C/c2ccco2)cc1S(=O)(=O)N1CCCCCC1`, the pIC50 was 5.67.
Same read-out and setting: the same measure for `O=C(N[C@H]1C/C=C\C[C@@H](CC(=O)N(CCO)Cc2ccccc2)C(=O)NC[C@H](c2ccccc2)OC1=O)OCC1c2ccccc2-c2ccccc21`: 5.14; for `O=C(N[C@@H]1C/C=C\C[C@@H](CC(=O)N(CCO)Cc2ccccc2)C(=O)NC[C@H](c2ccccc2)OC1=O)OCC1c2ccccc2-c2ccccc21`: 5.08; for `Cc1ncoc1C(=O)NC1CCCc2c1cnn2-c1ccc(C(C)(C)C)cc1` (stereo not given): 5.13.
`O=C(C[C@H]1C/C=C\C[C@@H](NC(=O)OCC2c3ccccc3-c3ccccc32)C(=O)O[C@@H](c2ccccc2)CNC1=O)N[C@H](CO)Cc1ccccc1`: the pIC50 was 5.12.
`CCc1ccccc1NC(=S)N=Nc1c(O)n(C)c2ccc(S(=O)(=O)N3CCOCC3)cc12`: the pIC50 was 4.96.
As to `Cc1sc2ncnc(NCC3COc4ccccc4O3)c2c1C` (stereo not given), the negative logarithm of the IC50 (pIC50) is 5.29.
As to `COc1ccccc1NS(=O)(=O)c1cccc(C(=O)NC2CCN(Cc3ccccc3)CC2)c1`, the IC50 was > 20 µM (inactive).
For `COc1ccccc1CN(Cc1nc2ccccc2c(=O)[nH]1)S(=O)(=O)c1ccc(C)cc1`, the IC50 was > 20 µM (inactive).
With `C[N+]1=C(/C=C/Nc2ccccc2)C(C)(C)c2ccccc21`, the pIC50 was 5.27.
Still for that read-out and setting: the same measure for `Cc1cc(N/N=C/c2ccc(O)cc2O)nc(-n2nc(C)cc2C)n1`: 5.14; for `COc1ccc2c(c1)c(C)cc[n+]2Cc1ccccc1`: 5.41.
Still for that read-out and setting: then `CCOC(=O)CSc1c(-c2cccs2)[nH]c2ccccc12`, with 5.43.
`Brc1ccc(-[n+]2c(-c3ccccc3)cc(-c3ccccc3)cc2-c2ccccc2)cc1`: the pIC50 is 5.32.
Regarding `Cc1nn(-c2ccc(NC(=O)c3ccncc3)cc2)c(C)c1Cl`, the pIC50 was 5.03.
In the case of `CCn1c(=O)cc(SCC(=O)N2CCN(C3CCCCC3)CC2)c2ccccc21`, the pIC50 was 4.92.
`CCOC(=O)C1CCCN(S(=O)(=O)c2ccc(S(=O)(=O)N(CC)CC)cc2)C1` (stereo not given): the negative-log IC50 (pIC50) is 5.48.
Consider `O=C(Cn1cnc2ccccc21)Nc1cccc(S(=O)(=O)N2CCCC2)c1`, for which the pIC50 was 5.04.
Take `CCCCOc1ccc(N2C(N)=NC(N)=NC23CCCCC3)cc1`: the pIC50 is 4.77.
Regarding `O=C(Nc1cc(N2CCCCC2)ncn1)c1ccccc1`, the pIC50 is 6.53.
Take `O=C(N[C@@H]1C/C=C\C[C@@H](CC(=O)N(CCO)Cc2ccccc2)C(=O)NCCOC1=O)OCC1c2ccccc2-c2ccccc21`: the pIC50 was 4.90.
With `C[C@@H]1COC(=O)[C@H](NC(=O)OCC2c3ccccc3-c3ccccc32)C/C=C\C[C@@H](CC(=O)N[C@@H](CO)Cc2ccccc2)C(=O)N1`, the pIC50 was 5.11.
Still for that read-out and setting: then `O=C(C[C@@H]1C/C=C\C[C@H](NC(=O)OCC2c3ccccc3-c3ccccc32)C(=O)OC[C@H]2CCCN2C1=O)N[C@H](CO)Cc1ccccc1`, with 5.17; and `CCc1nc(N)nc(N)c1-c1ccc(N(C)Cc2ccccc2)c([N+](=O)[O-])c1`, with 5.80.
On to `Cc1ccc2c(c1)c(C)cc[n+]2Cc1ccccc1`, for which the pIC50 is 5.06.
In the case of `COc1ccc(-c2noc(CCCCC(=O)N3CCN(c4cc(C)ccc4C)CC3)n2)cc1`, the pIC50 was 5.40.
For the molecule `CC1CN(S(=O)(=O)c2ccc(C(=O)Nc3nc(-c4cc5ccccc5o4)cs3)cc2)CC(C)O1` (stereo not given), the pIC50 was 5.90.
In the case of `CCOc1ccc(OCc2ccc(C(=O)NN=Cc3ccc[nH]3)cc2)cc1`, the negative logarithm of the IC50 (pIC50) is 5.61.
Consider `CCn1c(/C=C/Nc2ccccc2)[n+](CC)c2cc(Cl)c(Cl)cc21`, for which the pIC50 is 5.10.
Take `Cc1cc(C)c[n+](C(C)C(=O)c2ccc(-c3ccccc3)cc2)c1` (stereo not given): the pIC50 was 5.23.
Same read-out and setting: the same measure for `CCOC(=O)c1c(NC(=O)C(=O)N/N=C/c2ccccc2O)sc2c1CCCCC2`: 5.36.
For `CCC(C)[C@H]1CN=C(N)N1CCc1cccc2ccccc12` (stereo not given in full), the pIC50 is 5.18.
For `COc1ccccc1-n1c(-c2ccccc2)c[n+]2c1CCc1ccccc1-2`, the pIC50 was 5.44.
Regarding `c1ccc(Cn2c(-c3ccccc3)c[n+]3c2SCCC3)cc1`, the pIC50 was 5.18.
Same read-out and setting: then `CCCOc1ccccc1N/C(=N/c1nc(C)cc(C)n1)NC(=O)COc1ccc(OC)cc1`, with 5.11.
Regarding `CCCc1c(CC)c(=N)c2ccccc2n1C`, the pIC50 is 4.89.
The same measure, in the same setting: then `Cc1nc2ccccc2n1CC(=O)NC(C)C1CC2CCC1C2` (stereo not given), with 5.10.
Regarding `Cc1c(CCOC(=O)C23CC4CC(CC(C)(C4)C2)C3)sc[n+]1Cc1ccccc1`, the IC50 is > 20 µM (inactive).
On to `CCOC(=O)CC1CCCCN1C(=O)c1cc(COc2cccc3cnccc23)on1` (stereo not given), for which the pIC50 is 5.35.
As for `CCC(C)NS(=O)(=O)c1ccc(S(=O)(=O)N2CCCC3(CCCCC3)C2)cc1` (stereo not given), the IC50 was > 20 µM (inactive).
As to `Cc1cc(Br)c(S(=O)(=O)NCc2ccncc2)cc1C`, the pIC50 was 5.09.
As to `COc1ccc(CNc2ncnc3c2[nH]c2ccccc23)cc1`, the pIC50 was 5.55.

(Values after PubChem BioAssay AID602464 (Sanford-Burnham Center for Chemical Genomics, 2012).)
